USRE49850E1, “N-(pyridin-2-yl)-4-(thiazol-5-yl)pyrimidin-2-amine derivatives as therapeutic compounds” (AUCENTRA THERAPEUTICS PTY LTD, priority 2015, dated 2024)

Experiments:
CDK4D1 = biological target: T1, CDK4D1 (Homo sapiens, UniProt P11802); test: Kinase assay CDK4/D1 (radiometric or ADP Glo); type: biochemical; details: apparent Ki calculated from Km (ATP) and IC50; read-out: CDK inhibition Ki CDK4D1
T1 construct: purchased Eurofins Pharma Discovery or Reaction Biology Corporation (service)
T1 sequence (P11802 whole entry): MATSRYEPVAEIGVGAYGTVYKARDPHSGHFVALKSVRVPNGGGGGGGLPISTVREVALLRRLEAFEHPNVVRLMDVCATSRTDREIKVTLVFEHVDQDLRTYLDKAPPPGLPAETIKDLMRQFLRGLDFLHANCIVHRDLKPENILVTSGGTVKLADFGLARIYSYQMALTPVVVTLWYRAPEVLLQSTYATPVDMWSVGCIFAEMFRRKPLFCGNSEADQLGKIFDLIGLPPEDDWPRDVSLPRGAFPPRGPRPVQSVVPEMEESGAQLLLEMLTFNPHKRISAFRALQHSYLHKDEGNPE
T1 sequence (P24385 whole entry partner): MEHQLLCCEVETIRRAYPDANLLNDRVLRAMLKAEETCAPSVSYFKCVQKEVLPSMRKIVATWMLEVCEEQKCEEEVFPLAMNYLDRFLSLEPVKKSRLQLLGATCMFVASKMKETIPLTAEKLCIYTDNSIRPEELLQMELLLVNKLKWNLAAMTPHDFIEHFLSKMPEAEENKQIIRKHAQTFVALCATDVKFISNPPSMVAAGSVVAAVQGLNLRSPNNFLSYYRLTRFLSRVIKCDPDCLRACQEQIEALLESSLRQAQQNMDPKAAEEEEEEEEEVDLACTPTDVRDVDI
Experimental: (§1) Eurofins Pharma Discovery or Reaction Biology Corporation Kinase Profiler services were used to measure inhibition of CDKs and other kinases by radiometric assay. Inhibition of CDK4/D1, CDK6/D3 and CDK9/T1 were also determined in-house using ADP Glo Kinase assays (Promega Corporation, Madison, USA). Briefly, the kinase reaction for CDK4/D1 and CDK6/D3 was performed with kinase reaction buffer ([…] Tris base pH 7.5, 20 mM MgCl2, 0.4 mM DTT), 0.1 mg/ml BSA and RB-CTF substrate (retinoblastoma protein1 C-terminal fraction). For CDK9/CyclinT1, the kinase reaction was performed with standard assay buffer and Kinase Dilution Buffer and RBER-IRStide substrate. Serial dilutions of 1:3 were prepared for test compounds for 10 concentrations (from 10 μM to 0.5 nM). The kinase reactions were started by addition of ATP, incubated for 40 min at 37° C. and then stopped by adding 10 μL of ADP Glo reagent. After incubation at room temperature in the dark for 40 min, 20 μL of kinase detection reagent was added per well and incubated for 40 min. Luminescence was measured using an EnVision Multilabel plate reader (PerkinElmer, Buckinghamshire, UK). Positive and negative controls were perfonned in the presence and absence of CDK kinases, respectively. Half-maximal inhibition (IC50) values were calculated using a 4-parameter logistic non-linear regression model with Graphpad prism (Version 6.0). Apparent inhibition constants (Ki) values were calculated from Km (ATP) and IC50 values for the respective kinases.

MV4-11 = test: Cell viability assay (resazurin, leukemia cell line) MV4-11; type: cell-based, human; details: Homo sapiens, MV4-11, 72 h; read-out: Anti-proliferative activity GI50 MV4-11
From the text: (§2) Compounds from Example 1 were subjected to a standard MTT (3-(4,5-dimethylthiazol-2-yl)-2,5-diphenyltetrazolium bromide) and resazurin assays on solid tumour cell lines and leukemia cell lines, respectively, as previously reported (Wang S et al., J Med Chem 47:1662-1675, 2004 and Diab S. et al. CheMedChem 9:962-972, 2014).

MDA-MB-453 = test: Cell viability assay (MTT, solid tumour cell line) MDA-MB-453; type: cell-based, human; details: Homo sapiens, MDA-MB-453, 72 h; read-out: Anti-proliferative activity GI50 MDA-MB-453
From the text: as §2

CDK9T1 = biological target: T2, CDK9T1 (Homo sapiens, UniProt P50750); test: Kinase assay CDK9/T1 (radiometric or ADP Glo); type: biochemical; details: apparent Ki calculated from Km (ATP) and IC50; read-out: CDK inhibition Ki CDK9T1
T2 construct: purchased Eurofins Pharma Discovery or Reaction Biology Corporation (service)
T2 sequence (P50750 whole entry): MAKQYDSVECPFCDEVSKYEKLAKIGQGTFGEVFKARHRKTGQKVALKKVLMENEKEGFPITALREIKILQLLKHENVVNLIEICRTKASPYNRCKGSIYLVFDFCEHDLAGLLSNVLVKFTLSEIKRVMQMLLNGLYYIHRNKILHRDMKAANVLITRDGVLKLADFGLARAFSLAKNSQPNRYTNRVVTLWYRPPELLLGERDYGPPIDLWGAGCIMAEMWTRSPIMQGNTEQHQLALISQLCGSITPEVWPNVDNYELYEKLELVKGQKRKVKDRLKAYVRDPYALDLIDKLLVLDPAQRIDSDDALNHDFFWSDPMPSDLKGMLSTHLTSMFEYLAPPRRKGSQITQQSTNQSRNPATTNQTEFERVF
T2 sequence (O60563 whole entry partner): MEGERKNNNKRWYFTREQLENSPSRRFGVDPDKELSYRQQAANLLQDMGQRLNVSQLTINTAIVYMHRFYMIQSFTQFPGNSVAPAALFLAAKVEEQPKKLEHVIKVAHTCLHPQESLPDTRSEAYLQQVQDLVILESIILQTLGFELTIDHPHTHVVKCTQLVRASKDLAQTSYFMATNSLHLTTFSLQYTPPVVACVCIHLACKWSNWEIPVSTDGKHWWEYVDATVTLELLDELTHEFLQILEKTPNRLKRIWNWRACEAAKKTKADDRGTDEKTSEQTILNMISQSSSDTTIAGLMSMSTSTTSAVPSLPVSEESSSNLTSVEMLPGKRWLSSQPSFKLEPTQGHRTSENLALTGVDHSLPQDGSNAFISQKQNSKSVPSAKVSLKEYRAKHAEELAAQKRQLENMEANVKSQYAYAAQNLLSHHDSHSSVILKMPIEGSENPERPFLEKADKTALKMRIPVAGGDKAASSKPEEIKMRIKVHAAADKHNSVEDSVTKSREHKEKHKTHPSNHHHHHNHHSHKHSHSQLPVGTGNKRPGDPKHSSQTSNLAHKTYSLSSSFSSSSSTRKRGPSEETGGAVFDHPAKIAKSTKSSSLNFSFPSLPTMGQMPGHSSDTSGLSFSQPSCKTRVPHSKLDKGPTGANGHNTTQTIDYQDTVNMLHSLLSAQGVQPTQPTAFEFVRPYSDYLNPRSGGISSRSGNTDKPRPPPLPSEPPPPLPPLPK
Experimental: as §1

CDK 2A = CDK 2A (Homo sapiens, UniProt P24941); test: Kinase assay CDK2A (radiometric profiling service); type: biochemical; details: apparent Ki calculated from Km (ATP) and IC50; read-out: CDK inhibition Ki CDK 2A
Experimental: as §1

CDK1B = CDK1B (Homo sapiens, UniProt P06493); test: Kinase assay CDK1B (radiometric profiling service); type: biochemical; details: apparent Ki calculated from Km (ATP) and IC50; read-out: CDK inhibition Ki CDK1B
CDK1B, sequence (P06493 whole entry): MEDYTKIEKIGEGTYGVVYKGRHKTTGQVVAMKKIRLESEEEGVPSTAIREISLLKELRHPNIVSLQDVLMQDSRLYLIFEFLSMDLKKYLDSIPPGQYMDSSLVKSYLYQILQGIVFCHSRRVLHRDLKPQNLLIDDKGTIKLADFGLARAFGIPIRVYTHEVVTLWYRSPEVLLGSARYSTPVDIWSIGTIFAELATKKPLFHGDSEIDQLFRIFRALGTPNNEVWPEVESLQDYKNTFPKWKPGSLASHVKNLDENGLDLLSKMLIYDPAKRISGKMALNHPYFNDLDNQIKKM
CDK1B, sequence (P14635 whole entry partner): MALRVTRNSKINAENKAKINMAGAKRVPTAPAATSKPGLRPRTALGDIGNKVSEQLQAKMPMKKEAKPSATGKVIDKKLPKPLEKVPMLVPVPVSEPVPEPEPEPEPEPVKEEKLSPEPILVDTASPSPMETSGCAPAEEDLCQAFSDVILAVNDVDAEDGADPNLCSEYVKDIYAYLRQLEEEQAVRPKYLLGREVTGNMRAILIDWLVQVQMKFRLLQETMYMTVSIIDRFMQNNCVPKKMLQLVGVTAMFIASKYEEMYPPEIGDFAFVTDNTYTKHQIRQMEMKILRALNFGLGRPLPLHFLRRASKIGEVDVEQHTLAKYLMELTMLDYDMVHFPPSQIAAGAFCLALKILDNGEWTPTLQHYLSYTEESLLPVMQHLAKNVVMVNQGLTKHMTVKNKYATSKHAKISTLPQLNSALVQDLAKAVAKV
Experimental: as §1

CDK6D3 = biological target: T3, CDK6D3 (Homo sapiens, UniProt Q00534); test: Kinase assay CDK6/D3 (radiometric or ADP Glo); type: biochemical; details: apparent Ki calculated from Km (ATP) and IC50; read-out: CDK inhibition Ki CDK6D3
T3 construct: purchased Eurofins Pharma Discovery or Reaction Biology Corporation (service)
T3 sequence (Q00534 whole entry): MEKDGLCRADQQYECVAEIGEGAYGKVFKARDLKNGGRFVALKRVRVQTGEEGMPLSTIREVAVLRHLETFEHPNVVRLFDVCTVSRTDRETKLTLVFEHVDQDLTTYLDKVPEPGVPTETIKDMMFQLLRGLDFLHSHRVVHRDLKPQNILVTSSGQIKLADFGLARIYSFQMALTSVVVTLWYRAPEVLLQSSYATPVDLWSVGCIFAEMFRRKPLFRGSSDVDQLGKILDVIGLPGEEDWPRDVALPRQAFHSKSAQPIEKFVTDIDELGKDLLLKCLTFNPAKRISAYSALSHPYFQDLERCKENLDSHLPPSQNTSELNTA
T3 sequence (P30281 whole entry partner): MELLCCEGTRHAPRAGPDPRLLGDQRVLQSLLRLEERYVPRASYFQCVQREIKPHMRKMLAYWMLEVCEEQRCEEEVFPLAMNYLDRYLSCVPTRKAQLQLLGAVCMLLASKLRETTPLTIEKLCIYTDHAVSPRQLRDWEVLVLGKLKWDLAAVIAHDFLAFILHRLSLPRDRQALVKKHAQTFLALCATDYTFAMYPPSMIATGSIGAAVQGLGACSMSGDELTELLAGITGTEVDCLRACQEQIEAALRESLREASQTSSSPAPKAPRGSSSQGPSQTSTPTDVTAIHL
Experimental: as §1

| Structure (SMILES) | Ki (CDK4D1) | GI50 (MV4-11) | GI50 (MDA-MB-453) | Ki (CDK9T1) | Ki (CDK 2A) | Ki (CDK1B) | Ki (CDK6D3) |
| --- | --- | --- | --- | --- | --- | --- | --- |
| CC(=O)N1CCN(c2ccc(Nc3nccc(-c4sc(NC(C)C)nc4C)n3)nc2)CC1 [Compound 57, 1-(4-(6-((4-(2-(isopropylamino)-4-methylthiazol-5-yl)pyrimidin-2-yl)amino)pyridin-3-yl)piperazin-1-yl)ethan-1-one] | 21 nM | 2070 ± 321 nM | 344 ± 126 nM | 3720 nM | 200 nM | 2700 nM | 105 nM |
| Cc1nc(NC(C)C)sc1-c1ccnc(Nc2ccc(N3CCCNCC3)cn2)n1 [Compound 59, 5-(2-((5-(1,4-diazepan-1-yl)pyridin-2-yl)amino)pyrimidin-4-yl)-N-isopropyl-4-methylthiazol-2-amine] | 16 nM | 255 ± 85 nM | 938 ± 68 nM | 925 nM | 800 nM | > 5000 nM | 28 nM |
| Cc1nc(NC2CCCC2)sc1-c1ccnc(Nc2ccc(N3CCN(C)CC3)cn2)n1 [Compound 63, N-cyclopentyl-4-methyl-5-(2-((5-(4-methylpiperazin-1-yl)pyridin-2-yl)amino)pyrimidin-4-yl)thiazol-2-amine] | 2 nM | 9 nM | 130 ± 11 nM | 180 nM | 206 nM | 2680 nM | 9 nM |
| CCN1CCN(c2ccc(Nc3ncc(F)c(-c4sc(NC5CCCC5)nc4C)n3)nc2)CC1 [Compound 67, N-cyclopentyl-5-(2-((5-(4-ethylpiperazin-1-yl)pyridin-2-yl)amino)-5-fluoropyrimidin-4-yl)-4-methylthiazol-2-amine] | 2 nM | 13 ± 2 nM | 66 ± 19 nM | > 5000 nM | 349 nM | > 5000 nM | 6 nM |
| CC(=O)N1CCN(c2ccc(Nc3nccc(-c4sc(NC5CCCC5)nc4C)n3)nc2)CC1 [Compound 68, 1-(4-(6-((4-(2-(Cyclopentylamino)-4-methylthiazol-5-yl)pyrimidin-2-yl)amino)pyridin-3-yl)piperazin-1-yl) ethan-1-one] | 6 nM | 24 ± 28 nM | 591 ± 256 nM | 286 nM | 776 nM | 3250 nM | 93 nM |
| Cc1nc(NC2CCCC2)sc1-c1ccnc(Nc2ccc(N3CCC(N)CC3)cn2)n1 [Compound 74, 5-(2-((5-(4-aminopiperidin-1-yl)pyridin-2-yl)amino)pyrimidin-4-yl)-N-cyclopentyl-4-methylthiazol-2-amine] | 3 nM | 22 ± 2 nM | 55 ± 12 nM | 173 nM | 181 nM | 1230 nM | 133 nM |
| Cc1nc(NC2CCCC2)sc1-c1ccnc(Nc2ccc(N3CCCNCC3)cn2)n1 [Compound 76, 5-(2-((5-(1,4-diazepan-1-yl)pyridin-2-yl)amino)pyrimidin-4-yl)-N-cyclopentyl-4-methylthiazol-2-amine] | 1 nM | 29 ± 2 nM | 102 ± 117 nM | 508 nM | 278 nM | 4070 nM | 8 nM |
| Cc1nc(NC2CCCC2)sc1-c1ccnc(Nc2ccc(N3CCN(S(C)(=O)=O)CC3)cn2)n1 [Compound 77] |  | 176 ± 9 nM | 215 ± 52 nM |  |  |  |  |
| O=CN1CCN(c2ccc(Nc3nccc(-c4sc(NC5CCCC5)nc4C(F)(F)F)n3)nc2)CC1 [Compound 79, 4-(6-((4-(2-(cyclopentylamino)-4-(trifluoromethyl)thiazol-5-yl)pyrimidin-2-yl)amino)pyridin-3-yl)piperazine-1-carbaldehyde] | 11 nM | 4 ± 1 nM | 336 ± 188 nM | > 5000 nM | 15 nM | 345 nM | 7 nM |
| Cc1nc(NC2CCCC2)sc1-c1nc(Nc2ccc(N3CCCNCC3)cn2)ncc1F [Compound 81, 5-(2-((5-(1,4-diazepan-1-yl)pyridin-2-yl)amino)-5-fluoropyrimidin-4-yl)-N-cyclopentyl-4-methylthiazol-2-amine] | 14 nM | 29 ± 2 nM | 83 ± 9 nM | 679 nM | 417 nM | > 5000 nM | 10 nM |

Continued by falling GI50 (MV4-11), values first:

| Ki (CDK4D1) | GI50 (MV4-11) | GI50 (MDA-MB-453) | Ki (CDK9T1) | Ki (CDK 2A) | Ki (CDK1B) | Ki (CDK6D3) | Structure (SMILES) |
| --- | --- | --- | --- | --- | --- | --- | --- |
| > 5000 nM | 2160 ± 431 nM | 2940 ± 507 nM |  |  |  |  | CNc1nc(C)c(-c2nc(Nc3ccccn3)ncc2F)s1 [Compound 54, 5-(5-fluoro-2-(pyridin-2-ylamino)pyrimidin-4-yl)-N,4-dimethylthiazol-2-amine] |
| > 5000 nM | 606 ± 38 nM | 463 ± 75 nM |  |  |  |  | CNc1nc(C)c(-c2nc(Nc3ccc(N4CCCCC4)cn3)ncc2F)s1 [Compound 51, 5-(5-fluoro-2-((5-(piperidin-1-yl)pyridin-2-yl)amino)pyrimidin-4-yl)-N,4-dimethylthiazol-2-amine] |
| 570 nM | 300 ± 35 nM | 4380 ± 691 nM | > 5000 nM |  |  |  | Cc1nc(NC2CCCC2)sc1-c1ccnc(Nc2ccccn2)n1 [Compound 78, N-cyclopentyl-4-methyl-5-(2-(pyridin-2-ylamino)pyrimidin-4-yl)thiazol-2-amine] |
| 5 nM | 93 ± 10 nM | 31 ± 2 nM | 2420 nM | 240 nM | 3140 nM | 11 nM | Cc1nc(NC(C)C)sc1-c1ccnc(Nc2ccc(N3CCNCC3)cn2)n1 [Compound 55, N-isopropyl-4-methyl-5-(2-((5-(piperazin-1-yl)pyridin-2-yl)amino)pyrimidin-4-yl)thiazol-2-amine] |
| 3 nM | 75 ± 5 nM | 618 ± 193 nM | 773 nM | 399 nM | 3810 nM | 15 nM | Cc1nc(NC(C)C)sc1-c1ccnc(Nc2ccc(N3CCN(C)CC3)cn2)n1 [Compound 56, N-isopropyl-4-methyl-5-(2-((5-(4-methylpiperazin-1-yl)pyridin-2-yl)amino)pyrimidin-4-yl)thiazol-2-amine] |
| 3 nM | 53 ± 4 nM | 780 ± 598 nM | 787 nM | 256 nM | 2240 nM | 7 nM | Cc1nc(NC2CCCC2)sc1-c1nc(Nc2ccc(N3CCNCC3)cn2)ncc1F [Compound 61, N-cyclopentyl-5-(5-fluoro-2-((5-(piperazin-1-yl)pyridin-2-yl)amino)pyrimidin-4-yl)-4-methylthiazol-2-amine] |
|  | 19 ± 3 nM | 4 ± 2 nM | 1980 nM |  | > 5000 nM |  | CCN1CCN(Cc2ccc(Nc3nccc(-c4sc(NC5CCCC5)nc4C)n3)nc2)CC1 [Compound 83, N-cyclopentyl-5-(2-((5-((4-ethylpiperazin-1-yl)methyl)pyridin-2-yl)amino)pyrimidin-4-yl)-4-methylthiazol-2-amine] |
| 4 nM | 12 ± 1 nM | 77 ± 1 nM | > 5000 nM | 14 nM | 297 nM | 6 nM | CC(=O)N1CCN(c2ccc(Nc3nccc(-c4sc(NC5CCCC5)nc4C(F)(F)F)n3)nc2)CC1 [Compound 70, 1-(4-(6-((4-(2-(cyclopentylamino)-4-(trifluoromethyl)thiazol-5-yl)pyrimidin-2-yl)amino)pyridin-3-yl)piperazin-1-yl)ethan-1-one] |
| 8 nM | 2 ± 1 nM | 81 ± 39 nM | 258 nM | 22 nM | 220 nM | 2 nM | FC(F)(F)c1nc(NC2CCCC2)sc1-c1ccnc(Nc2ccc(N3CCNCC3)cn2)n1 [Compound 62, N-cyclopentyl-5-(2-((5-(piperazin-1-yl)pyridin-2-yl)amino)pyrimidin-4-yl)-4-(trifluoromethyl)thiazol-2-amine] |
| 1 nM | 1 ± 1 nM | 420 ± 120 nM | 831 nM | 22 nM | 241 nM | 3 nM | CN1CCN(c2ccc(Nc3nccc(-c4sc(NC5CCCC5)nc4C(F)(F)F)n3)nc2)CC1 [Compound 65, N-cyclopentyl-5-(2-((5-(4-methylpiperazin-1-yl)pyridin-2-yl)amino)pyrimidin-4-yl)-4-(trifluoromethyl)thiazol-2-amine] |
